Measured values taken from patent US20030206891A1, “Rapamycin-based biological regulation” (ARIAD Gene Therapeutics, Inc., priority 1995, published 2003).
Blank lines part the entries; values can stand above or below the compound they belong to.

Tests used:
[1] = biological target: T1, FKBP (Homo sapiens, UniProt P62942); assay: Competitive fluorescence polarization (FP) assay of binding to FKBP with fluoresceinated FK506 probe AP1491
T1 construct: made in house

[2] = test system: HT1080 cells expressing myristoylated FRAP-FKBP-Fas or (FKBPx2)-Fas chimeras; assay: Regulated apoptosis of stably transfected HT1080 cells, alamar blue viability; type: cell-based, human
[3] = biological target: T2, FRAP (Homo sapiens, UniProt P42345+P62942); assay: SEAP reporter assay in HT20-6 cells for binding of rapalog-FKBP complexes to FRAP; type: cell-based; details: serial dilutions, 22 hours, FIG. 15
T2 construct: expressed in transfected cells; host or cells: HT20-6 (clone of human HT1080 fibrosarcoma cells)
T2 sequence (P42345 2025-2113): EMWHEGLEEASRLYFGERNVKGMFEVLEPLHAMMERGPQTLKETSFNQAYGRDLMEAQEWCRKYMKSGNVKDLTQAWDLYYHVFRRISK
T2 sequence (P62942 2-108): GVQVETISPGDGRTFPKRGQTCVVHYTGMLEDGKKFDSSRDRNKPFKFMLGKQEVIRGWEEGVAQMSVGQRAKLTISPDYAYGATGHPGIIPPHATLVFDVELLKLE

[4] = biological target: FRAP (amino acids 2015-2114) displayed on phage with His6-tagged FKBP (Homo sapiens, UniProt P42345+P62942); assay: Binding enrichment of FRAP display phagemids on His6-flag-FKBP with compound, captured on Ni-NTA agarose; details: 1 μM His6-flag-FKBP, 2.5 μl of 100 pM compound in 250 μl, 1 hour
FRAP (amino acids 2015-2114) displayed on phage with His6-tagged FKBP, sequence (P42345 2015-2114): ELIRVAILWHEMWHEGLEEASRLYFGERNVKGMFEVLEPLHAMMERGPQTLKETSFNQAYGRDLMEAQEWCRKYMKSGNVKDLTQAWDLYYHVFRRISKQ
FRAP (amino acids 2015-2114) displayed on phage with His6-tagged FKBP, sequence (P62942 with tags, fused parts or gaps): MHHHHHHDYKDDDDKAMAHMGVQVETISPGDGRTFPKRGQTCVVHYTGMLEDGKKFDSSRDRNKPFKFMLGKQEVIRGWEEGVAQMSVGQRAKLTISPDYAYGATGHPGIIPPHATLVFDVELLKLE

[5] = test system: transfected HT1080 cells; assay: Rapamycin-dependent production of hGH in nu/nu mice transplanted with transfected HT1080 cells; type: in vivo
Text: To transplant transiently transfected cells into mice, 2×10^6 transfected HT1080 cells, were suspended in 100 _l PBS/0.1% BSA/0.1% glucose buffer, and administered into four intramuscular sites (approximately 25 _l per site) on the haunches and flanks of the animals. Control mice received equivalent volume injections of buffer alone.
(§1) The accuracy of the dosing solutions was confirmed by HPLC analysis prior to intravenous administration into the tail veins. […] In addition, other control mice, bearing transfected cells, received only the rapamycin vehicle.
Blood was collected by either anesthetizing or sacrificing mice via CO2 inhalation. Anesthetized mice were used to collect 100 _l of blood by cardiac puncture. The mice were revived and allowed to recover for subsequent blood collections. Sacrificed mice were immediately exsanguinated. Blood samples were allowed to clot for 24 hours, at 4° C., and sera were collected following centrifugation at 1000×g for 15 minutes. Serum hGH was measured by the Boehringer Mannheim non-isotopic sandwich ELISA (Cat No.1 585 878). […] Recommended assay instructions were followed.
Mice were administered transfected HT1080 cells as described above. […] The four remaining doses were given under anesthesia, immediately subsequent to blood collection, at 16, 32, 48, and 64 hours. […]

[6] = biological target: Lex-FKBP and Lex-FRAP proteins (Homo sapiens, UniProt P42345+P62942); assay: Gel mobility shift assay of rapamycin-dependent DNA binding by Lex-FKBP/Lex-FRAP; type: biochemical; details: increasing amounts of rapamycin, FIG. 14 lanes 2-4
Lex-FKBP and Lex-FRAP proteins, sequence (P62942 2-108): as the sequence (P62942 2-108) above
Lex-FKBP and Lex-FRAP proteins, sequence (P42345 2025-2113): as the sequence (P42345 2025-2113) above

[7] = Pharmacokinetics in nu/nu mice after intravenous administration; type: in vivo
Text: as §1

[8] = rapamycin C24 oximes, competitive FP vs AP1491 probe, recombinant FKBP
[9] = C7 rapalog experiment, competitive FP

T1 sequence (P62942 whole entry): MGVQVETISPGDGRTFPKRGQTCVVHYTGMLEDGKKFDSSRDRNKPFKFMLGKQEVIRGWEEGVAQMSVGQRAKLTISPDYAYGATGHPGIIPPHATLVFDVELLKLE

fold loss in affinity (=IC50/IC50 of rapamycin) ([1]; C24 oxime experiment): 304
IC50 [1, 8]: 2400 nM
Compound: COC1CC2CCC(C)C(O)(O2)C(=O)C(=O)N2CCCCC2C(=O)OC(C(C)CC2CCC(O)C(OC)C2)CC(=NOCC(N)=O)C(C)C=C(C)C(O)C(OC)C(=O)C(C)CC(C)C=CC=CC=C1C (single isomer, unassigned) [AP1729, Rapamycin (E and Z)-24-(O-carboxamidomethyloxime)]

fold loss in affinity (=IC50/IC50 of rapamycin) ([1]; C24 oxime experiment): 40.5
IC50 [1, 8]: 320 nM
Compound: COC1CC2CCC(C)C(O)(O2)C(=O)C(=O)N2CCCCC2C(=O)OC(C(C)CC2CCC(O)C(OC)C2)CC(=NOCC(N)=O)C(C)C=C(C)C(O)C(OC)C(=O)C(C)CC(C)C=CC=CC=C1C (single isomer, unassigned) [AP1730, Rapamycin (E and Z)-24-(O-carboxamidomethyloxime)]

Compound: CCC(C)(C)C(=O)C(=O)N1CCCCC1C(=O)O[C@H](CCc1ccc(OC)c(OC)c1)c1cccc(OCC(=O)NCCOCCNC(=O)COc2cccc([C@@H](CCc3ccc(OC)c(OC)c3)OC(=O)C3CCCCN3C(=O)C(=O)C(C)(C)CC)c2)c1 (stereo partly drawn) [AP1428]
extent of cell death of cells expressing a myristoylated (FKBPx2)-Fas construct, relative to rapamycin on M30/M31 cells ([2]; FIG. 13(c)): comparable

fold loss in affinity (=IC50/IC50 of rapamycin) ([1]; C24 oxime experiment): 1620
IC50 [1, 8]: 16200 nM
Compound: COC1CC2CCC(C)C(O)(O2)C(=O)C(=O)N2CCCCC2C(=O)OC(C(C)CC2CCC(O)C(OC)C2)CC(=NOCC(=O)O)C(C)C=C(C)C(O)C(OC)C(=O)C(C)CC(C)C=CC=CC=C1C (stereo not drawn) [AP1686, Rapamycin (E and Z)-24-(O-carboxymethyloxime)]

fold loss in affinity (=IC50/IC50 of rapamycin) ([1]; C24 oxime experiment): 813
Compound: COC1CC2CCC(C)C(O)(O2)C(=O)C(=O)N2CCCCC2C(=O)OC(C(C)CC2CCC(O)C(OC)C2)CC(=NOCC(=O)O)C(C)C=C(C)C(O)C(OC)C(=O)C(C)CC(C)C=CC=CC=C1C (stereo not drawn) [AP1687, Rapamycin (E and Z)-24-(O-carboxymethyloxime)]

fold loss in affinity (=IC50/IC50 of rapamycin) ([1]; C7 rapalog experiment): 2.5
IC50 [1, 9]: 17.8 nM
FRAP affinity as indicated by SEAP production [3]: modest reduction in FRAP affinity
Compound: CO[C@@H]1CC(C[C@@H](C)C2CC(=O)[C@H](C)/C=C(\C)[C@@H](O)[C@@H](OC)C(=O)[C@H](C)C[C@H](C)/C=C/C=C/C=C(\C)[C@@H](OC(C)C)C[C@@H]3CC[C@@H](C)[C@@](O)(O3)C(=O)C(=O)N3CCCC[C@H]3C(=O)O2)CC[C@H]1O (stereo partly drawn) [AP1700, 7S-isopropoxyrapamycin]

fold loss in affinity (=IC50/IC50 of rapamycin) ([1]; C7 rapalog experiment): 3.0
IC50 [1, 9]: 24.5 nM
Compound: COC1CC(CC(C)C2CC(=O)C(C)C=C(C)C(O)C(OC)C(=O)C(C)CC(C)C=CC=CC=C(C)C(c3c[nH]c4ccccc34)CC3CCC(C)C(O)(O3)C(=O)C(=O)N3CCCCC3C(=O)O2)CCC1O (stereo not drawn) [AP1702, 7S-(3-indolyl)rapamycin]
FRAP affinity as indicated by SEAP production [3]: almost completely abolish SEAP expression

enrichment of FRAP phage compared to the starting mixture [4]: 2.4 fold
Compound: C=CC[C@@H]1/C=C(\C)C[C@H](C)C[C@H](OC)[C@H]2O[C@@](O)(C(=O)C(=O)N3CCCC[C@H]3C(=O)O[C@H](/C(C)=C/[C@@H]3CC[C@@H](O)[C@H](OC)C3)[C@H](C)[C@@H](O)CC1=O)[C@H](C)C[C@@H]2OC [FK506]

Compound: CO[C@H]1C[C@@H]2CC[C@@H](C)[C@@](O)(O2)C(=O)C(=O)N2CCCC[C@H]2C(=O)O[C@H]([C@H](C)C[C@@H]2CC[C@@H](O)[C@H](OC)C2)CC(=O)[C@H](C)/C=C(\C)[C@@H](O)[C@@H](OC)C(=O)[C@H](C)C[C@H](C)/C=C/C=C/C=C/1C [rapamycin, Rapamycin]
serum hGH production vs dose ([5]; 0.01-10.0 mg/kg i.v., 17 hours after administration, FIG. 6): dose-responsive production of hGH
time of peak serum hGH after treatment ([5]; single 10.0 mg/kg i.v. dose, FIG. 7): peaked at eight hours
enrichment of FRAP phage compared to the starting mixture [4]: 271 fold
effect on survival of cells not expressing mixed chimeric proteins ([2]; FIG. 13(c)): minimal effects
survival of cells stably transfected with M30 and M31-expressing constructs ([2]; with 50 ng/ml actinomycin D, about 20 hours, FIG. 13(a),(b)): potently reduced
formation of specific protein-DNA complex [6]: concomitant appearance of a specific complex

fold loss in affinity (=IC50/IC50 of rapamycin) ([1]; C7 rapalog experiment): 20.8
fold loss in affinity (=IC50/IC50 of rapamycin) ([1]; C24 oxime experiment): 18.6
Compound: C14-desoxo-rapamycin [reference compound]

Compound: hGH: human growth hormone secreted by the engineered cells (reporter gene product)
half-life of clearance from the circulation [7]: less than four minutes
